Data as given in patent publication US4959368A, “Therapeutic agent for neurological diseases” (Mitsui Petrochemical Industries Ltd., priority 1986, dated 1990).

Tests used:
[1] = test system: human neuroblastoma cell line GOTO; assay: Activity on cell line GOTO (simple method); assay type: cell-based; details: Table 2 GOTO Run No. 1; 10 μg/ml; control 8.4
Experimental: The biological activities in vitro of the compounds of formula (I) on cells of the nervous system were tested. The cells tested were human neuroblastoma cell line GOTO [see Sekiguchi, M., Oota, T., Sakakibara, K., Inui, N. & Fujii, G., Japan. J. Exp. Med., 49, 67-83 (1979)], and neuroblastoma cell line NB-1 [see Miyake, S., Shimo, Y., Kitamura, T., Nojyo, Y., Nakamura, T., Imkashuku, S. and Abe, T., The Autonomic Nervous System, 10, 115-120 (1973)], and mouse neuroblastoma cell line neuro-2a (Dainippon Pharmaceutical Co., Ltd.) which have been established as the cells of the nervous system. The above neuve cells were grown in an incubator at 37° C. in the presence of 5% carbon dioxide gas exponentially, and then cultivated for a certain period of time together with the compounds of formula (I).
A culture medium [composed of 45% of RPMI 1640 medium, 45% modified Eagle's medium (MEM) and 10% of fetal calf serum (FCS) and containing penicillin G sodium (100 units/ml) and streptomycin sulfate (100 microgram/ml)] containing neurobalstoma cell line GOTO in the logarithmic growth period was poured in an amount of 2 ml each into polystyrene dishes (35 mm; made by Corning Co.) so that the cell concentration was 2 to 6×10^4 cells per dish, and the cells were cultured for 1 to 2 days in a carbon dioxide gas incubator containing 5% of carbon dioxide gas in air at 37° C. Then, the culture fluid was removed, and 2 ml of a fresh serum-free culture fluid (consisting of 50% of RPMI medium and 50% of MEM medium and containing penicillin G sodium and streptomycin sulfate in the same amounts as above) was added. At the same time, a presterilized PBS solution (phosphate buffered saline) of each of the test compounds in various concentrations was added to each of the dishes. After culturing for 24 hours, the number of living cells was counted. Furthermore, the culture was photographed, and from the photos, the number and length of neurites per cell were measured. The numer of living cells was counted for 3 to 6 dishes by resistance to staining with erythrosine dye. The number and length of the neurites were measured with regard to 6 photos (more than 200 cells per photo).
As a simple method of evaluation, the number of cells have neurites with a length equal to, or larger than, the long diameter of the cell was divided by the total number of cells.

[2] = test system: mouse neuroblastoma cell line neuro-2a; assay: Activity on cell line neuro-2a (simple method); assay type: cell-based
Outline: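 Cells (2–6×10^4 per dish) grown 1–2 days at 37 °C, then switched to serum-free RPMI/MEM with compound in PBS for 24 h. Live cells counted by erythrosine exclusion; score is fraction of cells bearing neurites at least as long as the cell's long diameter, from photos.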

[3] = test system: rats with crushed sciatic nerves; assay: Curative effect on rats with crushed sciatic nerves; assay type: in vivo, rat (male Wistar); details: for Rate of recovery in muscle weight: soleus muscle, saline 51.8 ± 1.2
Experimental: Curative effect on rats with crushed sciatic nerves:
The curing effect of the compound (I) of the invention was tested on rats having crushed scietic nerves as a model of peripheral nervous disorder using (1) a change in the action of the hind paw with the crushed sciatic nerves and (2) a change in the weight of the muscle as an index of the course of degeneration and regeneartion of peripheral nerves.
In the experiment, male Wistar rats (6 weeks old), seven per group, were used. The sciatic nerves were crushed by a method similar to the method of Yamatsu et al. (see Kiyomi Yamatsu, Takenori Kaneko, Akifumi Kitahara and Isao Ohkawa, Journal of Japanese Pharmacological Society, 72, 259-268 (1976) and the method of Hasegawa et al. (see Kazuo Hasegawa, Naoji Mikuni and Yutaka Sakai, Journal of Japanese Pharmacological Society, 74, 721-734 (1978). Specifically, under anesthesia with pentobarbital (40 mg/kg, i.p.), the left side sciatic nerve was exposed at the femur and that site of the exposed scietic nerve which was 5 mm to the center from the branched part between the N. tibialis and the N. suralis was crushed using a modified artery, klomme, having a width of 2 mm and a gap of 0.1 mm. After the operation, the rats were assigned to the test groups at random.
Compound No. 408 was selected as the compound (I) of the invention and intraperitoneally administered to the rats once a day from the day of operation to the 22nd day. A group to which mecobalamin (made by Gedeon Richter Ltd.) was administered and a group to which 0.9% saline was administered were used as controls. The following items were measured with the lapse of time (on the 1st, 4th, 7th, 10th, 14th, 17th, 21st, and 23rd days after the crushing of the scietic nerves).
(1) Change in the action of the side of the hind paw with the crushed scietic nerve:
By a method similar to the method of Hasegawa [Hasegawa, K., Experientia, 34, 750-751 (1978)], the distance between the first and fifth digits of the hind paw was measured.
The ratio of the measured distance to the normal distance was calculated and expressed in percentage (%).
(2) Change in the weight of muscle
It is known that removal of a nerve or its disorder causes atrophy of the muscle which is under its control, and the atrophy is gradually cured by re-control by the nerve. For this reason, a change in the weight of the muscle, which is quantitative, was selected as an index. Twenty-three days after the operation, the soleus muscles of both sides of paws were extracted under anesthesia with pentobarbital, and their weights were measured. The ratio of the weight of the soleus muscle on the crushed side to that of normal side was calculated and expressed in percentage (%).

[4] = Table 2 neuro-2a Run No. 2, 1 μg/ml, control 7.9
[5] = Table 2 neuro-2a Run No. 2, 10 μg/ml, control 7.9

SMILES | Average of the proportions [1] [%] | Average of the proportions [2, 4] [%] | Average of the proportions [2, 5] [%] | Rate of recovery of the interdigit distance ([3]; 21st day, 3 mg/kg ip once a day, saline 62.0 ± 2.4) [%] | Rate of recovery of the interdigit distance ([3]; 21st day, 10 mg/kg ip once a day, saline 62.0 ± 2.4, *P < 0.05) [%] | Rate of recovery of the interdigit distance ([3]; 21st day, 30 mg/kg ip once a day, saline 62.0 ± 2.4, ***P < 0.001) [%] | Rate of recovery of the interdigit distance ([3]; 21st day, 100 mg/kg ip once a day, saline 62.0 ± 2.4) [%] | Rate of recovery of the interdigit distance ([3]; 23rd day, 3 mg/kg ip once a day, saline 71.1 ± 3.4) [%] | Rate of recovery of the interdigit distance ([3]; 23rd day, 10 mg/kg ip once a day, saline 71.1 ± 3.4, *P < 0.05) [%] | Rate of recovery of the interdigit distance ([3]; 23rd day, 30 mg/kg ip once a day, saline 71.1 ± 3.4, *P < 0.05) [%] | Rate of recovery of the interdigit distance ([3]; 23rd day, 100 mg/kg ip once a day, saline 71.1 ± 3.4) [%] | Rate of recovery in muscle weight ([3]; 23rd day, 3 mg/kg ip, *P < 0.05) [%] | Rate of recovery in muscle weight ([3]; 23rd day, 10 mg/kg ip, *P < 0.05) [%] | Rate of recovery in muscle weight ([3]; 23rd day, 30 mg/kg ip, *P < 0.05) [%] | Rate of recovery in muscle weight ([3]; 23rd day, 100 mg/kg ip, *P < 0.05) [%] | Average of the proportions ([2]; Table 2 neuro-2a Run No. 3, 0.01 μg/ml, control 2.0) [%] | Average of the proportions ([2]; Table 2 neuro-2a Run No. 3, 0.1 μg/ml, control 2.0) [%] | Average of the proportions ([2]; Table 2 neuro-2a Run No. 3, 1 μg/ml, control 2.0) [%]
CN1C(=O)Cc2cnc(N3CCNCC3)nc21 [Compound 408] | 25.33 | 27.73 | 25.05 | 70.9 ± 3.5 | 74.9 ± 3.1 | 79.6 ± 2.9 | 68.9 ± 4.3 | 80.1 ± 3.6 | 82.3 ± 2.7 | 85.4 ± 4.1 | 77.3 ± 6.0 | 58.0 ± 2.0 | 59.4 ± 2.2 | 59.3 ± 2.7 | 63.9 ± 3.5 | – | – | –
CN1Cc2nc(N3CCNCC3)ncc2C1=O [Compound 604] | 21.30 | 19.86 | 17.20 | – | – | – | – | – | – | – | – | – | – | – | – | 10.7 | 16.50 | 11.25
